Values of other authors, collected in US12064417B2, “Combination comprising a glucocorticoid and EDO-S101” (Purdue Pharmaceutical Products L.P., priority 2014, dated 2024).

Test system: multiple myeloma cell lines
Details: in vitro, relative to bendamustin

Cn1c(CCCCCCC(=O)NO)nc2cc(N(CCCl)CCCl)ccc21 [EDO-S101]
activity greater than the activity shown by bendamustin: 35-100
